Results taken from patent US9061069B2, “Use of constrained peptide mimic oligomers as vectorization agents” (CENTRE NATIONAL DE LA RECHERCHE SCIENTIFIQUE, priority 2009, dated 2015).
Where a SMILES comes first, the peptide text is derived from it. [ ]: non-standard residue; d: D form. The star is where a group is joined. Sta = CC(C)C[C@H](N)[C@@H](O)CC(=O)O; Isovaleryl = CC(C)CC(=O)*

Legend:
[1] = tested on: cells of the line MDA-MB-231; experiment: cytotoxicity, cellular viability test MTT; type: cell-based, human; settings: incubation of 5 days, 10^-5M
Description: The cytotoxicity of this novel class of molecules has also been determined in cells of the line MDA-MB-231 by using a cellular viability diagnostic test, MTT.

[2] = tested on: cancerous cells (MDA-MB-231, MCF7, LNCaP, HCT116, SaOs2); experiment: cell growth / proliferation of tumoral lines, incubation for 5 days; type: cell-based; settings: inhibitor alone
Experimental: FIG. 2 describes the cell growth (in percentage of number of cells with respect to a pepstatin control) of cancerous cells (mammary […] and MCF7, prostatics LNCaP, colic HCT116, osteoblastics SaOs2) as a function of their incubation for 5 days with 1 oligomer of AMPA (4497), pepstatin alone (Peps), [Val^1]-Pepstatin bonded to arginine (4567) and two conjugate inhibitors of cathepsin D-oligomer of AMPA bonded to an arginine residue (4564 and 4463). The negative percentages correspond to a reduction in the number of cells with respect to the initial cellular seeding.
FIG. 3 describes the cell growth (in percentage of number of cells with respect to a pepstatin control) of cancerous cells (MDA-MB-231, MCF7, LNCaP, HCT116, SaOs2) as a function of their incubation for 5 days with 1 oligomer of AMPA (4497), [Val^1]-Pepstatin bonded to conjugated arginine 5 (4567) and 4 [Val^1]-Pepstatin-oligomer of AMPA bonded to a lysine or arginine residue (4461, 4562, 4463, 4564). The negative percentages correspond to a reduction in the number of cells with respect to the initial cellular seeding.
The application of these vectors within the context of a tumoral pathology is now explored. […]

Structure (SMILES): NC(=O)CN1C(=O)[C@H](NC(=O)CN2C(=O)[C@H](NC(=O)COCCOCCNC(=S)Nc3ccc4c(c3)C(=O)OC43c4ccc(O)cc4Oc4cc(O)ccc43)CSc3ccccc32)CSc2ccccc21 [JMV4131]
- effect on cellular viability (MTT) [1]: significant effect on cellular viability

Structure (SMILES): CC(C)CC(=O)N[C@H](C(=O)N[C@H](C(=O)N[C@@H](CC(C)C)[C@@H](O)CC(=O)N[C@@H](C)C(=O)N[C@@H](CC(C)C)[C@@H](O)CC(=O)O)C(C)C)C(C)C [pepstatin A] (Isovaleryl-VV[Sta]A[Sta]-OH)
- effect on the proliferation of tumoral cells [2]: inactive
